Results from ChEMBL document CHEMBL1201862, “PubChem BioAssay data set” (2004).
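Cultured in 96-well plates, cells were exposed to test compound for 48 hours across five concentrations. GI50 = concentration required for 50% inhibition of growth.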 The source made the active and inactive calls. No stated cut-off is given here; in the data, active = GI50 up to about 1.1 µM and inactive = higher.

Legend:
Assay in all cases: inhibition of tumour cell growth, NCI panel, 48 h
SF-539 = tested on: SF-539
COLO 205 = tested on: COLO 205
M19-MEL = tested on: M19-MEL
HOP-92 = tested on: HOP-92
RPMI-8226 = tested on: RPMI-8226
ACHN = tested on: ACHN
CCRF-CEM = tested on: CCRF-CEM
HCT-116 = tested on: HCT-116
XF498 = tested on: XF498
HCT-15 = tested on: HCT-15
NCI-H23 = tested on: NCI-H23
OVCAR-5 = tested on: OVCAR-5
UO-31 = tested on: UO-31
OVCAR-3 = tested on: OVCAR-3
DMS-273 = tested on: DMS-273
LOX IMVI = tested on: LOX IMVI
SK-OV-3 = tested on: SK-OV-3
HOP-18 = tested on: HOP-18
CAKI-1 = tested on: CAKI-1
A549 = tested on: A549
DLD-1 = tested on: DLD-1
SNB-19 = tested on: SNB-19
SK-MEL-2 = tested on: SK-MEL-2
SF-268 = tested on: SF-268
HT-29 = tested on: HT-29
SN12C = tested on: SN12C
Malme-3M = tested on: Malme-3M
RXF 393 = tested on: RXF 393
UACC-62 = tested on: UACC-62
TK-10 = tested on: TK-10
786-0 = tested on: 786-0
SK-MEL-5 = tested on: SK-MEL-5
U-251 = tested on: U-251
OVCAR-4 = tested on: OVCAR-4
OVCAR-8 = tested on: OVCAR-8
M14 = tested on: M14
SNB-75 = tested on: SNB-75
LXFL 529 = tested on: LXFL 529
IGROV-1 = tested on: IGROV-1
MOLT-4 = tested on: MOLT-4
SNB-78 = tested on: SNB-78
KM-20L2 = tested on: KM-20L2
KM12 = tested on: KM12
K562 = tested on: K562
SK-MEL-28 = tested on: SK-MEL-28
UACC-257 = tested on: UACC-257
A498 = tested on: A498
SW-620 = tested on: SW-620
DMS-114 = tested on: DMS-114
HOP-62 = tested on: HOP-62
HCC 2998 = tested on: HCC 2998
NCI-H522 = tested on: NCI-H522
NCI-H226 = tested on: NCI-H226
EKVX = tested on: EKVX
MCF7 = tested on: MCF7
NCI-H460 = tested on: NCI-H460
MDA-MB-435 = tested on: MDA-MB-435
HL-60 = tested on: HL-60
PC-3 = tested on: PC-3
NCI/ADR-RES = tested on: NCI/ADR-RES
MDA-N = tested on: MDA-N
T47D = tested on: T47D
DU-145 = tested on: DU-145
BT-549 = tested on: BT-549
SR = tested on: SR
MDA-MB-231 = tested on: MDA-MB-231
SF-295 = tested on: SF-295
Hs-578T = tested on: Hs-578T

Question: With O=C(N/C(=C\c1ccc([N+](=O)[O-])cc1)c1nc2ccccc2s1)c1ccccc1 as the molecule, how does the GI50 (SF-539) read?
Answer: The GI50 was 23.6 µM (inactive).

Question: What about the GI50 (COLO 205) of the same molecule?
Answer: Its GI50 is 58.3 µM (inactive).

Question: What about the GI50 (M19-MEL) of the same molecule?
Answer: The GI50 was 22.9 µM (inactive).

Question: And the GI50 (HOP-92)?
Answer: Its GI50 is 23.6 µM (inactive).

Question: And the GI50 (RPMI-8226)?
Answer: The GI50 was 19.2 µM (inactive).

Question: And the GI50 (ACHN)?
Answer: Its GI50 is 29.2 µM (inactive).

Question: And the GI50 (CCRF-CEM)?
Answer: Its GI50 is 19.1 µM (inactive).

Question: What about the GI50 (HCT-116) of the same molecule?
Answer: Its GI50 is 27 µM (inactive).

Question: And the GI50 (XF498)?
Answer: Its GI50 is 44.8 µM (inactive).

Question: And the GI50 (HCT-15)?
Answer: Its GI50 is 27.2 µM.

Question: What about the GI50 (NCI-H23) of the same molecule?
Answer: The GI50 was 19.7 µM (inactive).

Question: And the GI50 (OVCAR-5)?
Answer: Its GI50 is 54.7 µM (inactive).

Question: And the GI50 (UO-31)?
Answer: Its GI50 is 24.3 µM (inactive).

Question: And the GI50 (OVCAR-3)?
Answer: Its GI50 is 29.3 µM (inactive).

Question: And the GI50 (DMS-273)?
Answer: The GI50 was 35.7 µM (inactive).

Question: What about the GI50 (LOX IMVI) of the same molecule?
Answer: The GI50 was 20 µM (inactive).

Question: What about the GI50 (SK-OV-3) of the same molecule?
Answer: The GI50 was > 100 µM (inactive).

Question: And the GI50 (HOP-18)?
Answer: The GI50 was 18.5 µM (inactive).

Question: And the GI50 (CAKI-1)?
Answer: Its GI50 is 31 µM (inactive).

Question: What about the GI50 (A549) of the same molecule?
Answer: Its GI50 is 30.7 µM (inactive).

Question: And the GI50 (DLD-1)?
Answer: Its GI50 is 19.9 µM (inactive).

Question: And the GI50 (SNB-19)?
Answer: The GI50 was 32.8 µM (inactive).

Question: And the GI50 (SK-MEL-2)?
Answer: The GI50 was 23.7 µM (inactive).

Question: What about the GI50 (SF-268) of the same molecule?
Answer: The GI50 was 20.1 µM (inactive).

Question: And the GI50 (HT-29)?
Answer: Its GI50 is 31.6 µM (inactive).

Question: What about the GI50 (SN12C) of the same molecule?
Answer: The GI50 was 20.9 µM (inactive).

Question: And the GI50 (Malme-3M)?
Answer: Its GI50 is > 100 µM (inactive).

Question: What about the GI50 (RXF 393) of the same molecule?
Answer: The GI50 was 28.6 µM (inactive).

Question: And the GI50 (UACC-62)?
Answer: The GI50 was 20.4 µM (inactive).

Question: And the GI50 (TK-10)?
Answer: The GI50 was 22.6 µM (inactive).

Question: And the GI50 (786-0)?
Answer: The GI50 was 18 µM (inactive).

Question: What about the GI50 (SK-MEL-5) of the same molecule?
Answer: Its GI50 is 25.7 µM (inactive).

Question: What about the GI50 (U-251) of the same molecule?
Answer: Its GI50 is 31.6 µM (inactive).

Question: And the GI50 (OVCAR-4)?
Answer: Its GI50 is 29.9 µM (inactive).

Question: What about the GI50 (OVCAR-8) of the same molecule?
Answer: Its GI50 is 24.6 µM (inactive).

Question: What about the GI50 (M14) of the same molecule?
Answer: The GI50 was 31.9 µM (inactive).

Question: And the GI50 (SNB-75)?
Answer: The GI50 was 26.7 µM (inactive).

Question: And the GI50 (LXFL 529)?
Answer: Its GI50 is 18.8 µM (inactive).

Question: And the GI50 (IGROV-1)?
Answer: Its GI50 is 23 µM (inactive).

Question: And the GI50 (MOLT-4)?
Answer: The GI50 was 19.1 µM (inactive).

Question: And the GI50 (SNB-78)?
Answer: The GI50 was 37.4 µM (inactive).

Question: And the GI50 (KM-20L2)?
Answer: The GI50 was 40.7 µM (inactive).

Question: What about the GI50 (KM12) of the same molecule?
Answer: The GI50 was 22.5 µM (inactive).

Question: What about the GI50 (K562) of the same molecule?
Answer: The GI50 was 17.7 µM (inactive).

Question: What about the GI50 (SK-MEL-28) of the same molecule?
Answer: The GI50 was 39.5 µM (inactive).

Question: What about the GI50 (UACC-257) of the same molecule?
Answer: The GI50 was 28.1 µM (inactive).

Question: And the GI50 (A498)?
Answer: Its GI50 is 31.3 µM (inactive).

Question: And the GI50 (SW-620)?
Answer: Its GI50 is 26.7 µM (inactive).

Question: And the GI50 (DMS-114)?
Answer: Its GI50 is 23.3 µM (inactive).

Question: And the GI50 (HOP-62)?
Answer: Its GI50 is 35.6 µM (inactive).

Question: What about the GI50 (HCC 2998) of the same molecule?
Answer: The GI50 was 57.4 µM (inactive).

Question: And the GI50 (NCI-H522)?
Answer: Its GI50 is > 10 µM (inactive).

Question: What does the source list for Cc1cn(C2CC(O)C(CO)O2)c(=O)[nH]c1=O (centres undefined)?
Answer: GI50 (SF-539): 3670 µM (inactive); GI50 (COLO 205): 3090 µM (inactive); GI50 (M19-MEL): 1070 µM (inactive); GI50 (HOP-92): 3020 µM (inactive); GI50 (NCI-H226): 3780 µM (inactive); GI50 (RPMI-8226): 2050 µM (inactive); GI50 (ACHN): 1840 µM (inactive); GI50 (EKVX): 2380 µM (inactive); GI50 (CCRF-CEM): 54.7 µM (inactive); GI50 (HCT-116): 1930 µM (inactive); GI50 (XF498): 263 µM (inactive); GI50 (MCF7): 325 µM (inactive); GI50 (NCI-H460): 655 µM (inactive); GI50 (HCT-15): 3370 µM; GI50 (NCI-H23): 1020 µM (inactive); GI50 (OVCAR-5): 4060 µM (inactive); GI50 (UO-31): 3670 µM (inactive); GI50 (MDA-MB-435): 4940 µM (inactive); GI50 (OVCAR-3): 1490 µM (inactive); GI50 (DMS-273): 3780 µM (inactive); GI50 (LOX IMVI): 1310 µM (inactive); GI50 (SK-OV-3): 2480 µM (inactive); GI50 (HOP-18): 4610 µM (inactive); GI50 (HL-60): > 4760 µM (inactive); GI50 (CAKI-1): 1420 µM (inactive); GI50 (A549): 689 µM (inactive); GI50 (PC-3): > 5000 µM (inactive); GI50 (DLD-1): 2700 µM (inactive); GI50 (SNB-19): 1730 µM (inactive); GI50 (SK-MEL-2): 3880 µM (inactive); GI50 (SF-268): 2280 µM (inactive); GI50 (HT-29): 4430 µM (inactive); GI50 (SN12C): 1220 µM (inactive); GI50 (NCI/ADR-RES): 2260 µM (inactive); GI50 (Malme-3M): 2410 µM (inactive); GI50 (RXF 393): 2510 µM (inactive); GI50 (UACC-62): 843 µM (inactive); GI50 (MDA-N): 3780 µM (inactive); GI50 (TK-10): > 5000 µM (inactive); GI50 (786-0): 1160 µM (inactive); GI50 (T47D): > 4080 µM (inactive); GI50 (DU-145): > 4450 µM (inactive); GI50 (BT-549): > 5000 µM (inactive); GI50 (SR): > 2020 µM (inactive); GI50 (MDA-MB-231): > 3520 µM (inactive); GI50 (SK-MEL-5): 4450 µM (inactive); GI50 (U-251): 1530 µM (inactive); GI50 (OVCAR-4): > 3890 µM (inactive); GI50 (OVCAR-8): 1590 µM (inactive); GI50 (M14): 1850 µM (inactive); GI50 (SNB-75): 3630 µM (inactive); GI50 (SF-295): 2290 µM (inactive); GI50 (IGROV-1): > 4900 µM (inactive); GI50 (MOLT-4): 386 µM (inactive); GI50 (SNB-78): 3180 µM (inactive); GI50 (KM-20L2): 3360 µM (inactive); GI50 (KM12): > 4930 µM (inactive); GI50 (K562): 1540 µM (inactive); GI50 (Hs-578T): 3900 µM (inactive); GI50 (SK-MEL-28): 1360 µM (inactive); GI50 (UACC-257): 3760 µM (inactive); GI50 (A498): > 4670 µM (inactive); GI50 (SW-620): 2130 µM (inactive); GI50 (DMS-114): 728 µM (inactive); GI50 (HOP-62): 1380 µM (inactive); GI50 (HCC 2998): 3680 µM (inactive); GI50 (NCI-H522): 1690 µM (inactive)
